Each block holds one molecule with its values, some of them ahead of it.
Experiments:
LapD^EAL = target: T1, LapD^EAL (Pseudomonas fluorescens, UniProt Q3KK31, A602E); test: radioligand filter binding, one-site fit; details: read-out: Apparent K d
T1 construct: isolated degenerate EAL domain, residues 399-648; purified; dimer with c-di-GMP
T1 sequence (Q3KK31 399-648 A602E): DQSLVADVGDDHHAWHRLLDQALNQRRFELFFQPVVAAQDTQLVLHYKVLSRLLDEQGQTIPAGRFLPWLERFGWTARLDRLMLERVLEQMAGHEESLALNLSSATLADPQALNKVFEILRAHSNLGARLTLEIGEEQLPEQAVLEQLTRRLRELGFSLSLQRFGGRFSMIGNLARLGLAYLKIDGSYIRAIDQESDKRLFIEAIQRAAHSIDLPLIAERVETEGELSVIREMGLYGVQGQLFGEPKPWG
Description: radioligand filter binding, one-site fit on LapD^EAL

LapD^dual [1] = target: T2, LapD^dual (Pseudomonas fluorescens, UniProt Q3KK31); test: radioligand filter binding, one-site fit; details: read-out: Apparent K d
T2 construct: cytoplasmic S helix-GGDEF-EAL dual domain module, residues 220-648, lacks HAMP; purified; apo monomer, dimerizes with c-di-GMP
T2 sequence (Q3KK31 220-648): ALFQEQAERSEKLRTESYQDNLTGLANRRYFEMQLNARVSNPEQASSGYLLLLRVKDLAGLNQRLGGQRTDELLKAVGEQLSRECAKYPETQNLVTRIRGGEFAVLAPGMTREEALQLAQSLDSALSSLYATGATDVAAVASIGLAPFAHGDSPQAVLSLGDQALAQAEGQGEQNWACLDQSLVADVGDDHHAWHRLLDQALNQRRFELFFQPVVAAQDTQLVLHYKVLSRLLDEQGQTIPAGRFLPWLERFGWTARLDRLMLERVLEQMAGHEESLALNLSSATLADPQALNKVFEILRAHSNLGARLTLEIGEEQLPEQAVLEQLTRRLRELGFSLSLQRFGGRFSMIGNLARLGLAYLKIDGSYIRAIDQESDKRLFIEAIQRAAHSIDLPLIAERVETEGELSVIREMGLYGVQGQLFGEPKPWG
Description: (§1) radioligand filter binding, one-site fit on LapD^dual

LapD^dual [2] = target: T3, LapD^dual (Pseudomonas fluorescens, UniProt Q3KK31, A602E); test: radioligand filter binding, one-site fit; details: read-out: Apparent K d
T3 construct: cytoplasmic S helix-GGDEF-EAL dual domain module, residues 220-648, lacks HAMP; purified; apo monomer, dimerizes with c-di-GMP
T3 sequence (Q3KK31 220-648 A602E): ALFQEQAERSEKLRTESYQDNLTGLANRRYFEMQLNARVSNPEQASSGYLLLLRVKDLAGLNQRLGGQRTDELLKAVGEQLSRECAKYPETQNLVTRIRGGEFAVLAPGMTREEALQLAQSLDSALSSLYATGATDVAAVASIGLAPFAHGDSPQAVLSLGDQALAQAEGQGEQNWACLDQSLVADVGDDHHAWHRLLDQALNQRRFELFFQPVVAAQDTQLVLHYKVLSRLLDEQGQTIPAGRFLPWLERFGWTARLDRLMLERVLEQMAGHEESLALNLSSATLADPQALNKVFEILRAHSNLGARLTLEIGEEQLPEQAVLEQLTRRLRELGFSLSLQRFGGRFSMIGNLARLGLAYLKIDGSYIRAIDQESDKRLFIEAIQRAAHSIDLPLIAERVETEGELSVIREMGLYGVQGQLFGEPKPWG
Description: as §1

LapD^dual [3] = target: T4, LapD^dual (Pseudomonas fluorescens, UniProt Q3KK31, A602E/S229D); test: radioligand filter binding, one-site fit; details: read-out: Apparent K d
T4 construct: cytoplasmic S helix-GGDEF-EAL dual domain module, residues 220-648, lacks HAMP; purified; apo monomer, dimerizes with c-di-GMP
T4 sequence (Q3KK31 220-648 S229D/A602E): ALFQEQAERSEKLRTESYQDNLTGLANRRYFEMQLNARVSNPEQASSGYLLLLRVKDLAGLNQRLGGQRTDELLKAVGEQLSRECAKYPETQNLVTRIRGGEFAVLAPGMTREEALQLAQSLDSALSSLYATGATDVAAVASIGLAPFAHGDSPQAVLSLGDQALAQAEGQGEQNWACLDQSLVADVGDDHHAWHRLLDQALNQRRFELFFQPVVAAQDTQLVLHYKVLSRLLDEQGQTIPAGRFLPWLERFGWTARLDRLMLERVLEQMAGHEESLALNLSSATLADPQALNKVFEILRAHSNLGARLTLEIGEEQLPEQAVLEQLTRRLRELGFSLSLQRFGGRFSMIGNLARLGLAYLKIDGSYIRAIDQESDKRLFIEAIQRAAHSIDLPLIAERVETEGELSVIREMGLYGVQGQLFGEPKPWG
Description: as §1

LapD^dual [4] = target: T5, LapD^dual (Pseudomonas fluorescens, UniProt Q3KK31, E262A); test: radioligand filter binding, one-site fit; details: read-out: Apparent K d
T5 construct: cytoplasmic S helix-GGDEF-EAL dual domain module, residues 220-648, lacks HAMP; purified; apo monomer, dimerizes with c-di-GMP
T5 sequence (Q3KK31 220-648 E262A): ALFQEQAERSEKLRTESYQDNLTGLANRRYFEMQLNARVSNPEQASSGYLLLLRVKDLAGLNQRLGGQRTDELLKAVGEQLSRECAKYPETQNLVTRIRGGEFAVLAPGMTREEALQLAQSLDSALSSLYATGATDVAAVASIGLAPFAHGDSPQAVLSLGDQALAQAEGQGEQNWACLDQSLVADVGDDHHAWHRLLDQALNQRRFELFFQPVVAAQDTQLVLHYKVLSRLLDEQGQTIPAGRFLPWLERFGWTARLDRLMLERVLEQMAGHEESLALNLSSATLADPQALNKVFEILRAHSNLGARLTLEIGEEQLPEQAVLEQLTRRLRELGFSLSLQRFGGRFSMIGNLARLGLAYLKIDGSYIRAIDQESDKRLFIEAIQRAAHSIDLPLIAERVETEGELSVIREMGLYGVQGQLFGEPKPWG
Description: as §1

LapD^dual [5] = target: T6, LapD^dual (Pseudomonas fluorescens, UniProt Q3KK31, S229D); test: radioligand filter binding, one-site fit; details: read-out: Apparent K d
T6 construct: cytoplasmic S helix-GGDEF-EAL dual domain module, residues 220-648, lacks HAMP; purified; apo monomer, dimerizes with c-di-GMP
T6 sequence (Q3KK31 220-648 S229D): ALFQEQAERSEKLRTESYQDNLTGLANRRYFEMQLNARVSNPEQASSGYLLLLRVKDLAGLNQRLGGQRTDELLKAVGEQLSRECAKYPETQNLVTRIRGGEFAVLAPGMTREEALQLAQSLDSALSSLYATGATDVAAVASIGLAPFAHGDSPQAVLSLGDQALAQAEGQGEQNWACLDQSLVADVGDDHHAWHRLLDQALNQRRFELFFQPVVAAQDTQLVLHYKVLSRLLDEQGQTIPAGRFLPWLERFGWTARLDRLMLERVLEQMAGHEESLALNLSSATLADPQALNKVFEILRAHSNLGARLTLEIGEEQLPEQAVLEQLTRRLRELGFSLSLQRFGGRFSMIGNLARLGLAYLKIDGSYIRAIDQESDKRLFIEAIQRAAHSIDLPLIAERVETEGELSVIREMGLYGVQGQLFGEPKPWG
Description: as §1

[6] = target: the molecule itself; test: crystal structure; LapD^output, selenomethionine-derivatized, 1.8 Å, two molecules per asymmetric unit
His6-tagged LapG = target: T7, His6-tagged LapG (P. fluorescens); test: pull-down; His6-LapG bound to NiNTA resin, untagged LapD output domain variants added, 1 h at 4°C; 25 mM Tris-HCl pH 8.4, 75 mM NaCl, 25 mM KCl, 40 mM imidazole; eluates on SDS-PAGE (Coomassie; SYPRO Ruby for quantification); details: both partners purified
T7 chain: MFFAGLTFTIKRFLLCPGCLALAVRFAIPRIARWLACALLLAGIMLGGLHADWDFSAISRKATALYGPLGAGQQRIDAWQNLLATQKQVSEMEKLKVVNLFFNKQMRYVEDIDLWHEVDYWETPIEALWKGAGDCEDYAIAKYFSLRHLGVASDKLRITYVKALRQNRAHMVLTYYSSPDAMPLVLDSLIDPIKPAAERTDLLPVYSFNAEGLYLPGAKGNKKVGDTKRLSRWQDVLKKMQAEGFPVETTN

[7] = target: the molecule itself; test: AUC; sedimentation equilibrium, no c-di-GMP; 1x, 2x, 4x dilutions of ~12 µM protein; 25 mM Tris pH 7.5, 150 mM NaCl; 20°C; 10,000, 14,000 and 20,000 rpm, global fit; monomer:dimer equilibrium
[8] = target: the molecule itself; test: AUC; sedimentation equilibrium with 20 µM c-di-GMP; 1x, 2x, 4x dilutions of ~12 µM protein; 25 mM Tris pH 7.5, 150 mM NaCl; 20°C; global fit with dinucleotide binding and dimerization of the c-di-GMP-bound form; monomer:dimer equilibrium

Molecule: Nc1nc2c(ncn2[C@@H]2O[C@@H]3CO[P@](=O)(O)O[C@H]4[C@@H](O)[C@H](n5cnc6c(=O)[nH]c(N)nc65)O[C@@H]4CO[P@](=O)(O)O[C@H]3[C@H]2O)c(=O)[nH]1 [c-di-GMP]
- Kd (LapD^EAL): 36.3 ± 5.4 µM
- Kd (LapD^dual [1]): 27 ± 4.7 µM
- Kd (LapD^dual [2]): > 1000 µM
- Kd (LapD^dual [3]): > 1000 µM
- Kd (LapD^dual [4]): 15.3 ± 1.7 µM
- Kd (LapD^dual [5]): 15.1 ± 1.8 µM

- stoichiometry N (His6-tagged LapG): 2 LapG molecules per output domain dimer
B1: LapD^output, wild-type (periplasmic output domain of LapD, residues 22-151) (domain or fragment, P. fluorescens Pf0-1, UniProt Q3KK31 22-151, looked up)
chain: SFMVSLESSRTQYVNQLRSHAQDAATALALSLTPNIDDPAMVELLVSSIFDSGYYSSIRVVDLKTDQTIVERNGIPAVTNVPDWFVKLIGLEPAGGDALVSRGWEQAARVEVVSHPMFALAKLWQSALGS
notes: LapD, P. fluorescens Pf0-1, residues 22-151 (periplasmic output domain); untagged in the pull-down; domain-swapped dimer in the crystal; The crystals were grown with selenomethionine-derivatized protein; the final model spans residues 23-150; also called periplasmic domain of LapD; source: produced following standard molecular biology and liquid chromatography techniques, purified (protocols in …)
- binding result [6]: binds

B2: LapD^dual S229D (domain or fragment, P. fluorescens Pf0-1, UniProt Q3KK31 220-648, looked up)
chain: ALFQEQAERDEKLRTESYQDNLTGLANRRYFEMQLNARVSNPEQASSGYLLLLRVKDLAGLNQRLGGQRTDELLKAVGEQLSRECAKYPETQNLVTRIRGGEFAVLAPGMTREEALQLAQSLDSALSSLYATGATDVAAVASIGLAPFAHGDSPQAVLSLGDQALAQAEGQGEQNWACLDQSLVADVGDDHHAWHRLLDQALNQRRFELFFQPVVAAQDTQLVLHYKVLSRLLDEQGQTIPAGRFLPWLERFGWTARLDRLMLERVLEQMAGHEESLALNLSSATLADPQALNKVFEILRAHSNLGARLTLEIGEEQLPEQAVLEQLTRRLRELGFSLSLQRFGGRFSMIGNLARLGLAYLKIDGSYIRAIDQESDKRLFIEAIQRAAHSIDLPLIAERVETEGELSVIREMGLYGVQGQLFGEPKPWG
notes: LapD, P. fluorescens Pf0-1, residues 220-648, mutation S229D in the S helix; also called S helix-EAL interface mutant; source: produced following standard molecular biology and liquid chromatography techniques, purified (protocols in Text S1)
- Kd [7]: 420 µM
- Kd [8]: 0.18 µM

Reference: article PMC3032553, “Structural Basis for c-di-GMP-Mediated Inside-Out Signaling Controlling Periplasmic Proteolysis” (PLoS Biology, 2011)
